The subject of assay [1] is Mus musculus. Put plainly: Depletion of norepinephrine in mouse brain at 50 ug administered intracranially at 24 hrs interval on three successive days measured 24 hrs post last dose relative to control. The assay is classed as functional.
Assay [2] deals with Mus musculus. Put plainly: Depletion of dopamine in mouse brain at 50 ug administered intracranially at 24 hrs interval on three successive days measured 24 hrs post last dose relative to control. The assay is classed as functional.

As to `NCCc1cc(O)c(O)cc1N`, the figures for the Activity in assay [1] and in assay [2] were 34% and 106%, respectively.
The like results for `CN(C)CCc1cc(O)c(O)cc1N` were, in that order, 88% and 94%.
As to `CC(C)NCCc1cc(O)c(O)cc1N`, the Activity in assay [1] worked out at 81%.
The same measure, in the same setting: to `Br.CNCCc1cc(O)c(O)cc1N` belongs 66%.

The values above are taken from ChEMBL document CHEMBL3272116, “Synthesis and evaluation of brain catecholamine depletion by N-alkyl derivatives of 6-aminodopamine” (1976).
